Data on one compound can be found in patent US12208130B2, “Treatment of women affected with polycystic ovary syndrome” (INSTITUT NATIONAL DE LA SANTE ET DE LA RECHERCHE MEDICALE …, priority 2017, dated 2025).

Where a SMILES comes first, the peptide text is derived from it. [ ]: non-standard residue; d: D form. dPhe(4-Cl) = N[C@H](Cc1ccc(Cl)cc1)C(=O)O; d2Nal = N[C@H](Cc1ccc2ccccc2c1)C(=O)O; dCit = NC(=O)NCCC[C@@H](N)C(=O)O; d3Pal = N[C@H](Cc1cccnc1)C(=O)O

Assay [1] concerns pregnant mice. Nature of the assay: LH, T, E2 and P measurement in pregnant mice at E19.5. The assay is classed as in vivo, mouse. As to the method: PAMH+GnRH antag. (FIG. 3D) Schematic representation of tail-tip blood sampling in adult diestrus female mice (3-4 months old). (FIG. 3E) Tail blood was collected every 10 min for 2 h and LH measured from 10 a.m-12 p.m in adult (P60) diestrus females (Control, n=8; PAMH, n=10; PAMH+GnRH antag, n=9; One-way ANOVA and Tukey's multiple comparison post hoc test, F(2,24)=57.06, *P<0.05, ***P<0.0001). Bars from left to right: Control, PAMH, PAMH+GnRH antag. (FIGS. 2F-1, 2F-2, 2F-3) Representative graphs for LH pulsatility over 2-hr in one female adult (P60) mouse of each treatment. Asterisks in (FIG. 3F) indicate the number of LH pulses/2-hr. (FIG. 3G) Mean circulating testosterone and LH levels were analyzed in pregnant PBS-treated (n=4) and AMH-treated (n=4) dams at embryonic day (E) 19.5 of gestation. […] Values are expressed as relative to the mean of each treatment. All values are expressed as mean±s.e.m. […]
For the analysis of circulating LH and T levels, animals were decapitated and trunk blood from adult (P60) animals and P0 pups (1-2 hrs after birth) were collected in sterile Eppendorf tubes and left on ice until centrifugation. […] LH levels were determined by a sandwich ELISA, as described previously (Vidal et al., 2012, PloS one, Vol. 7: e39001), using the mouse LH-RP reference provided by A. F. Parlow (National Hormone and Pituitary Program, Torrance, CA). […]

Assay [2] concerns placenta. Nature of the assay: Quantitative RT-PCR of E19.5 placental tissue. The assay is classed as in vivo, mouse. Conditions: dams i.p. AMH + GnRH antag E16.5-E18.5; placenta E19.5. As to the method: PAMH+GnRH antag. (FIG. 3D) Schematic representation of tail-tip blood sampling in adult diestrus female mice (3-4 months old). (FIG. 3E) Tail blood was collected every 10 min for 2 h and LH measured from 10 a.m-12 p.m in adult (P60) diestrus females (Control, n=8; PAMH, n=10; PAMH+GnRH antag, n=9; One-way ANOVA and Tukey's multiple comparison post hoc test, F(2,24)=57.06, *P<0.05, ***P<0.0001). Bars from left to right: Control, PAMH, PAMH+GnRH antag. (FIGS. 2F-1, 2F-2, 2F-3) Representative graphs for LH pulsatility over 2-hr in one female adult (P60) mouse of each treatment. Asterisks in (FIG. 3F) indicate the number of LH pulses/2-hr. (FIG. 3G) Mean circulating testosterone and LH levels were analyzed in pregnant PBS-treated (n=4) and AMH-treated (n=4) dams at embryonic day (E) 19.5 of gestation. […] (FIG. 3H) Relative mRNA expression of placental Cyp191a (aromatase) in control (n=4) and AMH (n=4)-treated pregnant animals at E19.5. Cyp191a expression in the placenta is […] in AMH-treated pregnant dams as compared to control-treated pregnant dams (Unpaired Student's t-test, t(6)=5.414, **P<0.005). Values are expressed as relative to the mean of each treatment. All values are expressed as mean±s.e.m. (FIGS. 3I-1, 3I-2, 3I-3, 3I-4) Dams were injected from E16.5 to E18.5 with either PBS (vehicle, n=9-11), AMH (n=8-10), AMH+GnRH antag (n=5) and trunk blood was collected at E19.5 for hormonal measurements by ELISA. Data were combined from at least two independent experiments. In FIGS. 3I-1, 3I-2, 3I-3, 3I-4: left bar: vehicle; middle bar: AMH; right bar: AMH+GnRH antagonist. (FIGS. 3J-1, 3J-2, 3J-3, 3J-4)) Real-time PCR analysis of expression levels of AMHR2, CYP191A (cytochrome P450 family 19A1, aromatase), CYP11A1 (cytochrome P450 family 11A1), HSD3B1 (3beta-hydroxysteroid dehydrogenase/delta(5)-delta(4)isomerase type I or hydroxy-delta-5-steroid dehydrogenase) mRNA in the placenta of E19.5 dams. Dams were injected i.p. from E16.5 to E18.5 with either PBS (vehicle, n=8-17), AMH (n=7-11), or AMH+GnRH antag (n=8-13). Data were combined from three independent experiments. […] In FIGS. 3J-1, 3J-2, 3J-3, 3J-4: left bar: vehicle; middle bar: AMH; right bar: AMH+GnRH antagonist.
E19.5 placental tissue from female control and PAMH embryos was isolated for total RNA was using Trizol (ThermoFisher Scientific, Cat #15596026) and the RNeasy Lipid Tissue Mini Kit (Qiagen; Cat #74804) using the manufacturer's instructions. For gene expression analyses, mRNAs […] from E19.5 placental tissue were reverse transcribed using SuperScript® IV Reverse Transcriptase (Life Technologies). Real-time PCR was carried out on Applied Biosystems 7900HT Fast Real-Time PCR system using exon-boundary-specific TaqMan® Gene Expression Assays (Applied Biosystems): Amhr2 (AMHR2-Mm00513847_m1); Cyp19a1 (Cyp19a1-Mm00484049_m1); Cyp11a1 (Cyp11a1-Mm00490735_m1); HSD3b1 (Hsd3b1-Mm01261921_mH); GnRH (Gnrh-Mm01315604_m1); GnRH-R (Gnrhr-Mm00439143_m1); LH-R (Lhcgr-Mm00442931_m1). Control housekeeping genes: ActB (ActB-Mm00607939_s1); GAPDH (GAPDH-Mm99999915_g1).
Quantitative RT-PCR was performed using TaqMan® Low-Density Arrays (Applied Biosystems) on an Applied Biosystems thermocycler using the manufacturer's recommended cycling conditions. Gene expression data were analyzed using SDS 2.4.1 and Data Assist 3.01 software (Applied Biosystems), with ActB and GAPDH as control house-keeping mRNA following a standardized procedure. […]

Regarding `CC(=O)N[C@H](Cc1ccc2ccccc2c1)C(=O)N[C@H](Cc1ccc(Cl)cc1)C(=O)N[C@H](Cc1cccnc1)C(=O)N[C@@H](CO)C(=O)N[C@@H](Cc1ccc(O)cc1)C(=O)N[C@H](CCCNC(N)=O)C(=O)N[C@@H](CC(C)C)C(=O)N[C@@H](CCCNC(=N)N)C(=O)N1CCC[C@H]1C(=O)N[C@H](C)C(N)=O` [Cetrorelix acetate, Ac-D-2Nal-D-Phe(4-Cl)-D-3Pal-Ser-Tyr-D-Cit-Leu-Arg-Pro-D-Ala-NH2] (Ac-[d2Nal][dPhe(4-Cl)][d3Pal]SY[dCit]LRP[dA]-NH2), the “circulating T in dams” value in assay [1] (dams i.p. AMH + GnRH antag E16.5-E18.5) is given as “very low T levels”. In addition, the “AMH-induced increase of LH in pregnant mice” value in assay [1] (dams i.p. AMH + GnRH antagonist E16.5-E18.5) was “prevented”. Further, in assay [2], the “AMH-driven downregulation of placental HSD3B1 gene expression” value is “prevented the downregulation”, the “AMH-driven inhibition of placental CYP19A1 mRNA” value was “prevented”, the “placental CYP11A1 expression” value was “did not find any difference” and the “placental LHR expression” value was “normalized”. In addition, the “placental expression of GnRH and GnRHR” value in assay [2] is “unchanged”.
